Laboratory results as given in the supplement of paper PMC8671470.

Columns and labels:
Conditions in all cases: 72 h
[1] = test system: myeloid leukemia patient primary cells Pat.5; experiment: area under dose-response curve (viability, 1 nM-10 uM) (fraction (0-1)); higher = more sensitive
Protocol: (§1)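 AUC (0–1, higher = more sensitive) of the 5-point dose–response (1 nM–10 µM, 72 h, CellTiter-Glo) in primary AML/CML patient mononuclear cells. 0.030103 is the floor for inactive compounds.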

[2] = test system: myeloid leukemia patient primary cells Pat.12; experiment: as above
Protocol: as §1

[3] = test system: myeloid leukemia patient primary cells Pat.10; experiment: as above
Protocol: as §1

[4] = test system: myeloid leukemia patient primary cells Pat.3; experiment: as above
Protocol: as §1

[5] = test system: myeloid leukemia patient primary cells Pat.15; experiment: as above
Protocol: as §1

[6] = test system: myeloid leukemia patient primary cells Pat.9; experiment: as above
Protocol: as §1

[7] = test system: myeloid leukemia patient primary cells Pat.2; experiment: as above
Protocol: as §1

[8] = test system: myeloid leukemia patient primary cells Pat.7; experiment: as above
Protocol: as §1

[9] = test system: myeloid leukemia patient primary cells Pat.13; experiment: as above
Protocol: as §1

[10] = test system: myeloid leukemia patient primary cells Pat.4; experiment: as above
Protocol: as §1

[11] = test system: myeloid leukemia patient primary cells Pat.8; experiment: as above
Protocol: as §1

[12] = test system: myeloid leukemia patient primary cells Pat.1; experiment: as above
Protocol: as §1

HEL = test system: HEL
How it was run: (§2)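 For the IC50, dose–response curves were fitted with a log-logistic model. The data came from fifteen myeloid leukaemia cell lines grown in RPMI 1640 at densities in the linear growth range and incubated in 384-well plates for 72 h at 37 °C under 5% CO2. Doses were five tenfold steps from 1 to 10,000 nM in duplicate, and luminescent ATP viability was normalised to vehicle and to a positive control at 10 µM before four-parameter fitting.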

THP-1 = test system: THP-1
How it was run: as §2

Mono-Mac-6 = test system: Mono-Mac-6
How it was run: as §2

KU-812 = test system: KU-812
How it was run: as §2

KCL-22 = test system: KCL-22
How it was run: as §2

ML-2 = test system: ML-2
How it was run: as §2

BV-173 = test system: BV-173
How it was run: as §2

MV4-11 = test system: MV4-11
How it was run: as §2

HL-60 = test system: HL-60
How it was run: as §2

MOLM-13 = test system: MOLM-13
How it was run: as §2

K-562 = test system: K-562
How it was run: as §2

SHI-1 = test system: SHI-1
How it was run: as §2

KG-1 = test system: KG-1
How it was run: as §2

LAMA-84 = test system: LAMA-84
How it was run: as §2

[13] = test system: myeloid leukemia patient primary cells Pat.12; experiment: cell viability (% survival relative to DMSO control); higher = less cytotoxic
How it was run: (§3)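 Seventy compounds were pre-printed on 384-well plates at five tenfold concentrations between 1 and 10,000 nM, in duplicate. Thawed mononuclear cells purified by Ficoll from AML or CML patients were added at 10,000 cells/well in RPMI 1640 with 10% FBS for 72 h. Viability by CellTiter-Glo was normalised to DMSO and 10 μM proteasome-inhibitor wells. Where stated, area under the curve was taken from log-logistic fits made with the drc and PharmacoGx R packages, each fit having four parameters.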

[14] = test system: myeloid leukemia patient primary cells Pat.11; experiment: as above
How it was run: as §3

[15] = test system: myeloid leukemia patient primary cells Pat.10; experiment: as above
How it was run: as §3

[16] = test system: myeloid leukemia patient primary cells Pat.3; experiment: as above
How it was run: as §3

[17] = test system: myeloid leukemia patient primary cells Pat.9; experiment: as above
How it was run: as §3

[18] = test system: myeloid leukemia patient primary cells Pat.13; experiment: as above
How it was run: as §3

[19] = test system: myeloid leukemia patient primary cells Pat.1; experiment: as above
How it was run: as §3

[20] = test system: myeloid leukemia patient primary cells Pat.14; experiment: area under dose-response curve (viability, 1 nM-10 uM) (fraction (0-1)); higher = more sensitive
Protocol: as §1

What does the source list for `NS(=O)(=O)c1ccc(S(=O)(=O)Nc2cccc3c(Cl)c[nH]c23)cc1` [Indisulam]?
area under dose-response curve [1]: 0.379; area under dose-response curve [2]: < 0.0301; area under dose-response curve [3]: < 0.0301; area under dose-response curve [4]: 0.137; area under dose-response curve [5]: 0.0789; area under dose-response curve [6]: 0.227; area under dose-response curve [7]: < 0.0301; area under dose-response curve [8]: 0.228; area under dose-response curve [9]: 0.167; area under dose-response curve [10]: 0.29; area under dose-response curve [11]: 0.0654; area under dose-response curve [12]: 0.128; IC50 (cell viability) (HEL): 7000 nM; IC50 (cell viability) (THP-1): > 10000 nM; IC50 (cell viability) (Mono-Mac-6): 796 nM; IC50 (cell viability) (KU-812): 540 nM; IC50 (cell viability) (KCL-22): 1080 nM; IC50 (cell viability) (ML-2): 703 nM; IC50 (cell viability) (BV-173): 856 nM; IC50 (cell viability) (MV4-11): 128 nM; IC50 (cell viability) (HL-60): 7320 nM; IC50 (cell viability) (MOLM-13): 619 nM; IC50 (cell viability) (K-562): 1430 nM; IC50 (cell viability) (SHI-1): 1280 nM; IC50 (cell viability) (KG-1): 932 nM; IC50 (cell viability) (LAMA-84): 918 nM; cell viability ([13]; 1 nM): 89.5%; cell viability ([13]; 10 nM): 95.5%; cell viability ([13]; 100 nM): 89.6%; cell viability ([13]; 1000 nM): 96.9%; cell viability ([13]; 10000 nM): 85.2%; cell viability ([14]; 1 nM): 93.9%; cell viability ([14]; 10 nM): > 100%; cell viability ([14]; 100 nM): > 100%; cell viability ([14]; 1000 nM): 86.3%; cell viability ([14]; 10000 nM): 72.1%; cell viability ([15]; 1 nM): 55.5%; cell viability ([15]; 10 nM): 64.9%; cell viability ([15]; 100 nM): 97%; cell viability ([15]; 1000 nM): 81.4%; cell viability ([15]; 10000 nM): > 100%; cell viability ([16]; 1 nM): 84.5%; cell viability ([16]; 10 nM): > 100%; cell viability ([16]; 100 nM): > 100%; cell viability ([16]; 1000 nM): 72.9%; cell viability ([16]; 10000 nM): 34.2%; cell viability ([17]; 1 nM): 47.8%; cell viability ([17]; 10 nM): 84%; cell viability ([17]; 100 nM): 81.1%; cell viability ([17]; 1000 nM): 40.9%; cell viability ([17]; 10000 nM): 24.6%; cell viability ([18]; 1 nM): 92.6%; cell viability ([18]; 10 nM): 91.3%; cell viability ([18]; 100 nM): 98%; cell viability ([18]; 1000 nM): 57.4%; cell viability ([18]; 10000 nM): 44.8%; cell viability ([19]; 1 nM): 94.5%; cell viability ([19]; 10 nM): > 100%; cell viability ([19]; 100 nM): 94.1%; cell viability ([19]; 1000 nM): 65.2%; cell viability ([19]; 10000 nM): 48.8%

Which “area under dose-response curve” value [1] does the source give for `CCC(CC#N)OC(=O)N[C@@H](C)c1cccc(NC(=O)Nc2ccc(-c3cnco3)c(OC)c2)c1` (stereo in doubt) [AVN-944] here?
Its value is 0.641.

And the “area under dose-response curve” value [2]?
The value was < 0.0301.

What about the “area under dose-response curve” value [3] of the same molecule?
Its value is 0.508.

What about the “area under dose-response curve” value [4] of the same molecule?
The value was 0.44.

What about the “area under dose-response curve” value [6] of the same molecule?
Its value is 0.438.

And the “area under dose-response curve” value [7]?
The value was < 0.0301.

And the “area under dose-response curve” value [8]?
The value was 0.545.

And the “area under dose-response curve” value [9]?
Its value is 0.162.

And the “area under dose-response curve” value [20]?
The value was 0.167.

What about the “area under dose-response curve” value [10] of the same molecule?
The value was 0.162.

What about the “IC50 (cell viability)” value (HEL) of the same molecule?
Its value is 151 nM.

What about the “IC50 (cell viability)” value (THP-1) of the same molecule?
The value was 1900 nM.

And the “IC50 (cell viability)” value (Mono-Mac-6)?
Its value is 151 nM.

What about the “IC50 (cell viability)” value (KU-812) of the same molecule?
Its value is 94.9 nM.

And the “IC50 (cell viability)” value (KCL-22)?
Its value is 62.8 nM.

And the “IC50 (cell viability)” value (ML-2)?
The value was 66.8 nM.

And the “IC50 (cell viability)” value (BV-173)?
Its value is 118 nM.

And the “IC50 (cell viability)” value (MV4-11)?
Its value is 78.1 nM.

And the “IC50 (cell viability)” value (HL-60)?
The value was 182 nM.

What about the “IC50 (cell viability)” value (MOLM-13) of the same molecule?
The value was 44.9 nM.

And the “IC50 (cell viability)” value (K-562)?
Its value is 55.8 nM.

And the “IC50 (cell viability)” value (SHI-1)?
The value was 137 nM.

And the “IC50 (cell viability)” value (KG-1)?
The value was 173 nM.

What about the “IC50 (cell viability)” value (LAMA-84) of the same molecule?
Its value is 73.6 nM.

And the cell viability ([13]; 1 nM)?
Its cell viability is 98.7%.

And the cell viability ([13]; 10 nM)?
The cell viability was > 100%.

And the cell viability ([13]; 100 nM)?
The cell viability was 87.7%.

And the cell viability ([13]; 1000 nM)?
Its cell viability is > 100%.

And the cell viability ([13]; 10000 nM)?
Its cell viability is 92.9%.

What about the cell viability ([14]; 1 nM) of the same molecule?
The cell viability was > 100%.

And the cell viability ([14]; 10 nM)?
Its cell viability is 99.4%.

And the cell viability ([14]; 100 nM)?
Its cell viability is 90.8%.

What about the cell viability ([14]; 1000 nM) of the same molecule?
Its cell viability is 86.2%.

And the cell viability ([14]; 10000 nM)?
Its cell viability is 60.6%.

What about the cell viability ([15]; 1 nM) of the same molecule?
The cell viability was > 100%.

What about the cell viability ([15]; 10 nM) of the same molecule?
Its cell viability is 66.9%.

What about the cell viability ([15]; 100 nM) of the same molecule?
The cell viability was 41.6%.

What about the cell viability ([15]; 1000 nM) of the same molecule?
The cell viability was 58.3%.

What about the cell viability ([15]; 10000 nM) of the same molecule?
The cell viability was 4.94%.

And the cell viability ([16]; 1 nM)?
The cell viability was > 100%.

What about the cell viability ([16]; 10 nM) of the same molecule?
Its cell viability is 80.4%.

And the cell viability ([16]; 100 nM)?
Its cell viability is 51.2%.

What about the cell viability ([16]; 1000 nM) of the same molecule?
The cell viability was 29.3%.

And the cell viability ([16]; 10000 nM)?
The cell viability was 20%.

What about the cell viability ([17]; 1 nM) of the same molecule?
The cell viability was 74.9%.

What about the cell viability ([17]; 10 nM) of the same molecule?
The cell viability was 72.1%.

What about the cell viability ([17]; 100 nM) of the same molecule?
The cell viability was 50%.

And the cell viability ([17]; 1000 nM)?
The cell viability was 15.9%.

What about the cell viability ([17]; 10000 nM) of the same molecule?
Its cell viability is 1.99%.

And the cell viability ([18]; 1 nM)?
Its cell viability is 91.5%.

And the cell viability ([18]; 10 nM)?
Its cell viability is 93.1%.

What about the cell viability ([18]; 100 nM) of the same molecule?
The cell viability was 90.6%.

What about the cell viability ([18]; 1000 nM) of the same molecule?
Its cell viability is 63.4%.

And the cell viability ([18]; 10000 nM)?
Its cell viability is 36.5%.

And the cell viability ([19]; 1 nM)?
Its cell viability is 90.9%.

What about the cell viability ([19]; 10 nM) of the same molecule?
The cell viability was 85.7%.

What about the cell viability ([19]; 100 nM) of the same molecule?
The cell viability was 87.2%.

What about the cell viability ([19]; 1000 nM) of the same molecule?
The cell viability was 82.4%.

What about the cell viability ([19]; 10000 nM) of the same molecule?
The cell viability was 65.8%.
